Results from patent publication US11136329B2, “JAK inhibitors” (Vimalan Biosciences, Inc., priority 2019, dated 2021).

Assays:
Format in all cases: biochemical
JAK3 = JAK3 (Homo sapiens (Human), UniProt P52333); experiment: JAK/TYK2 assay (Kinase Glo luminescence), JAK3; conditions: 1.5 nM enzyme, 2 uM ATP, 4 uM pEY, 1 hr
In short: (§1)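 Luminescent Kinase Glo signal, inversely related to kinase activity, measured after a 1-2 hour reaction at 25° C. Buffer: 20 mM HEPES, 10 mM MgCl2, 0.01% Tween, 1 mM DTT, pH 7.5.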

JAK1 = JAK1 (Homo sapiens (Human), UniProt P23458); experiment: JAK/TYK2 assay (Kinase Glo luminescence), JAK1; conditions: 7.5 nM enzyme, 2 uM ATP, 30 uM IRS-1, 1 hr
JAK1, sequence (P23458 whole entry, species assumed): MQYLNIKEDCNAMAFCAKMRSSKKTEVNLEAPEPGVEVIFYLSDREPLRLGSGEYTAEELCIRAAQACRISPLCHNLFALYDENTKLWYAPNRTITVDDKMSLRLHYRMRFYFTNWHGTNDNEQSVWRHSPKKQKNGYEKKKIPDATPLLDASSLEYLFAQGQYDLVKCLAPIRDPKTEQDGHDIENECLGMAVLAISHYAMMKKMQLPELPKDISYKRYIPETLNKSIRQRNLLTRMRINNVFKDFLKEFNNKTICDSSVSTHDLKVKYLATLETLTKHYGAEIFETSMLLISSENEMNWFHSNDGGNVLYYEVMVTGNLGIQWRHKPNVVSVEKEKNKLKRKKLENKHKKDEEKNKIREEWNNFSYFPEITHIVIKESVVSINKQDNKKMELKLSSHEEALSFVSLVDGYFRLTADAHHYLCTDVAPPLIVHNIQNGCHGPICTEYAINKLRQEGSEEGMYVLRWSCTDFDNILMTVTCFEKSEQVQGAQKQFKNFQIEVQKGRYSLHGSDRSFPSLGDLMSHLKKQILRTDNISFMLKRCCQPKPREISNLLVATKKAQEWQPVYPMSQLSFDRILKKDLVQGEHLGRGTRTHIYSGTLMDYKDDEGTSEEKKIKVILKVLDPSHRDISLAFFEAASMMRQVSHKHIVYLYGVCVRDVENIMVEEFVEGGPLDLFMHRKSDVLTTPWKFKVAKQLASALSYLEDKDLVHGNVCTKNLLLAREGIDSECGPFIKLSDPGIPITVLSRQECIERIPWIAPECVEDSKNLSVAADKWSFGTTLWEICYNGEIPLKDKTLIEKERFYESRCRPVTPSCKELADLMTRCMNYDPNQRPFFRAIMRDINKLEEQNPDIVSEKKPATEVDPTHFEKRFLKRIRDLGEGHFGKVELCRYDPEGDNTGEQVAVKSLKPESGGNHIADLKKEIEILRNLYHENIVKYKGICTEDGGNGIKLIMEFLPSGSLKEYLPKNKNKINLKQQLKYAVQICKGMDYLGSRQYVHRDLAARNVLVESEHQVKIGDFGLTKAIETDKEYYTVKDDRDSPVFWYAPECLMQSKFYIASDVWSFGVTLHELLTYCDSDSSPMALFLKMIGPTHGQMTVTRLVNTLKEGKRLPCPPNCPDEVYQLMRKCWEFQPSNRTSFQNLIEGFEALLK
In short: as §1

TYK2 = TYK2 (Homo sapiens (Human), UniProt P29597); experiment: JAK/TYK2 assay (Kinase Glo luminescence), TYK2; conditions: 9 nM enzyme, 2 uM ATP, 30 uM IRS-1, 1 hr
TYK2, sequence (P29597 whole entry, species assumed): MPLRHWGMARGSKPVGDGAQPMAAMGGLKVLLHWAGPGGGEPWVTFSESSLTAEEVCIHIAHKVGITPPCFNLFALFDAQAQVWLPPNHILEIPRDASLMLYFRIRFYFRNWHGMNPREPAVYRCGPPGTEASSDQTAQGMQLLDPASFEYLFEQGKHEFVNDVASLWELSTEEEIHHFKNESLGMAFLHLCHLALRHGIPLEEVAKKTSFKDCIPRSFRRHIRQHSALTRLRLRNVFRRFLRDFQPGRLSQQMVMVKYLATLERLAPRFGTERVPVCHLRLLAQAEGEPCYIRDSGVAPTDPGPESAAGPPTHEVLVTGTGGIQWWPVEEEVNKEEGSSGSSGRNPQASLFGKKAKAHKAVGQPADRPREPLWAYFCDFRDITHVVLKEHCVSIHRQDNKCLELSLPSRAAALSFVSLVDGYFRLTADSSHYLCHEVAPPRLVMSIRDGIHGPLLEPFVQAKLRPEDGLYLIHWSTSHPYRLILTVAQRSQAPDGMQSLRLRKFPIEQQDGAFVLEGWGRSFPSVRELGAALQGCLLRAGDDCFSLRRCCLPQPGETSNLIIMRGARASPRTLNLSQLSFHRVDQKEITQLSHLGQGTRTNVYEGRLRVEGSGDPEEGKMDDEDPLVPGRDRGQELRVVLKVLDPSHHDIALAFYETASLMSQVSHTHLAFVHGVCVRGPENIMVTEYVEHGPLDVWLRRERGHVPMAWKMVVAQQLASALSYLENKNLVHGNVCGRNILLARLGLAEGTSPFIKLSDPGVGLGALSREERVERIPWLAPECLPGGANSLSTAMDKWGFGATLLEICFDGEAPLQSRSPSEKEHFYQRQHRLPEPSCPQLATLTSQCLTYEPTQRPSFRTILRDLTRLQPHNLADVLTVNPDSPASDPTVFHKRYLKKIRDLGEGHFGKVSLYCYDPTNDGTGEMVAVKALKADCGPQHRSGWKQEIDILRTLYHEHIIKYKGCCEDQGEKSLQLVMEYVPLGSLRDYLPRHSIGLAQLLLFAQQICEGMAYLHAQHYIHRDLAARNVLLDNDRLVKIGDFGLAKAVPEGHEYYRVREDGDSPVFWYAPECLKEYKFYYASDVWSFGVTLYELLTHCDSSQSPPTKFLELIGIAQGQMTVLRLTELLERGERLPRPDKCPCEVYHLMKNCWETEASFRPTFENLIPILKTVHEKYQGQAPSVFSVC
In short: as §1

JAK2 = JAK2 (Homo sapiens (Human), UniProt O60674); experiment: JAK/TYK2 assay (Kinase Glo luminescence), JAK2; conditions: 0.8 nM enzyme, 2 uM ATP, 4 uM pEY, 1 hr
JAK2, sequence (O60674 whole entry, species assumed): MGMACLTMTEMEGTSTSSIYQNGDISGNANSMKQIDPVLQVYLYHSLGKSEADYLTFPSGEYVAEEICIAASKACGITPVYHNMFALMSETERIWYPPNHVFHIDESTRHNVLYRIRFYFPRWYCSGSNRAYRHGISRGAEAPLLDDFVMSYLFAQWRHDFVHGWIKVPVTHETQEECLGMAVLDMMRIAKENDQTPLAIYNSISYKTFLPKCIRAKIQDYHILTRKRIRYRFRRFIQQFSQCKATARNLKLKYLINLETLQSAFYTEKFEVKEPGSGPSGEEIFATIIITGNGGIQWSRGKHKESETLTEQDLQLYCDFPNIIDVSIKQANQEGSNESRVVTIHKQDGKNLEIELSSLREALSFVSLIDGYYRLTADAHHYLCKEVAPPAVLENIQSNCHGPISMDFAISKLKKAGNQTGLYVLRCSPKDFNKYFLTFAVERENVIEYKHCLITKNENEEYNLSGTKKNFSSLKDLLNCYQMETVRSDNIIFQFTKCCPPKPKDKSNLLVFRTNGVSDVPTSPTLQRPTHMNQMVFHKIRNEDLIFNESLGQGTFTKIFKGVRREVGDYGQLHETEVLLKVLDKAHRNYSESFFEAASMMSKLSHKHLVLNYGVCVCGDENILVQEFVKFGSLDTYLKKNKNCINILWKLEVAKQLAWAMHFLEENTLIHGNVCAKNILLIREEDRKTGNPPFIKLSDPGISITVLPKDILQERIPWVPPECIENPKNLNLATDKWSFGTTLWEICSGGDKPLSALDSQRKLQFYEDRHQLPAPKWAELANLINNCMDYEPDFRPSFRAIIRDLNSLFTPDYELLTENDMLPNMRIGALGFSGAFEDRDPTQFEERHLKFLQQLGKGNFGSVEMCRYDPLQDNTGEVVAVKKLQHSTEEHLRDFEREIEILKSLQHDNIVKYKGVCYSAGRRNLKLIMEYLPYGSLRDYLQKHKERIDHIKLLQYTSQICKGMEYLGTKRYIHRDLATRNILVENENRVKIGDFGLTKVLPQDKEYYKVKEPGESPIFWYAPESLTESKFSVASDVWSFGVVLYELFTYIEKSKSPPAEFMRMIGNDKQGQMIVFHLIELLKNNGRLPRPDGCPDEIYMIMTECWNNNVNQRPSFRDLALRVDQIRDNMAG
In short: as §1

JAK3, sequence (P52333 whole entry, species assumed): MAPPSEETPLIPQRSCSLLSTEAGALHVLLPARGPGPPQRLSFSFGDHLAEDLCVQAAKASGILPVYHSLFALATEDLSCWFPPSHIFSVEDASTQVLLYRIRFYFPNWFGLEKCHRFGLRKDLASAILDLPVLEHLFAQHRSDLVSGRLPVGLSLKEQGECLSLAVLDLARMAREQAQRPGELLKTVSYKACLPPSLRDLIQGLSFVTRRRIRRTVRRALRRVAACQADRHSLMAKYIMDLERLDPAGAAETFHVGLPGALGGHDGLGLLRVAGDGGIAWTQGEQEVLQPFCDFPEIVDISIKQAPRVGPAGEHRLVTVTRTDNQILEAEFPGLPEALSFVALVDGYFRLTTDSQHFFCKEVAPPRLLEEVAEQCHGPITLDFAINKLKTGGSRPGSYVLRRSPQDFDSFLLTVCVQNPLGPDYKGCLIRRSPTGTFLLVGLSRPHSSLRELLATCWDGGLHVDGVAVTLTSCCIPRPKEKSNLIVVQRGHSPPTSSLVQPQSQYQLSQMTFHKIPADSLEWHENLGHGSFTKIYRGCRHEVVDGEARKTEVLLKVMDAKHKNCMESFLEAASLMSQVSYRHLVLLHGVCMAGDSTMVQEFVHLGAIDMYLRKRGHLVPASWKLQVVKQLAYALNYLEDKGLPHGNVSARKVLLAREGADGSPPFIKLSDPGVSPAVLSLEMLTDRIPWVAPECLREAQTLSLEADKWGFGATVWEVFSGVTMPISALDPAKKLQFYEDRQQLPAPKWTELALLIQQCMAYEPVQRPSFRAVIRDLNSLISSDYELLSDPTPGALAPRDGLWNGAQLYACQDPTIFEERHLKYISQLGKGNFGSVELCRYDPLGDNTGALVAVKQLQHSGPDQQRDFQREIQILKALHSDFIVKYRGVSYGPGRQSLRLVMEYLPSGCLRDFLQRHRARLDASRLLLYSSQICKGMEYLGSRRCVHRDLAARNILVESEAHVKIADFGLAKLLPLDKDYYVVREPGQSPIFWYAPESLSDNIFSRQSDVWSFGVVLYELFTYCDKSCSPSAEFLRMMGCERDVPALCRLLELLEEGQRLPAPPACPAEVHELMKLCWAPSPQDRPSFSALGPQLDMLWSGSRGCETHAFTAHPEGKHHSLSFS

Compound	IC50 (JAK3) [nM]	IC50 (JAK1) [nM]	IC50 (TYK2) [nM]	IC50 (JAK2) [nM]
O=C(O)Cn1cc(Nc2ncc3ccn(CC4CCCCC4)c3n2)cn1 [Compound 15, 2-(4-((7-(cyclohexylmethyl)-7H-pyrrolo[2,3-d]pyrimidin-2-yl)amino)-1H-pyrazol-1-yl)acetic acid]	< 100	< 100	< 100	< 100
CCOC(=O)Cn1cc(Nc2ncc3ccn(C[C@H]4CC[C@@H](OC)CC4)c3n2)cn1 [Compound 128, ethyl 2-(4-((7-(((1s,4s)-4-methoxycyclohexyl)methyl)-7H-pyrrolo[2,3-d]pyrimidin-2-yl)amino)-1H-pyrazol-1-yl)acetate]	100 to 1000	1000 to 10000	100 to 1000	100 to 1000
CCOC(=O)Cn1cc(Nc2ncc3ccn(CCC4CCCCC4)c3n2)cn1 [Compound 18, ethyl 2-(4-((7-(2-cyclohexylethyl)-7H-pyrrolo[2,3-d]pyrimidin-2-yl)amino)-1H-pyrazol-1-yl)acetate]	< 100	> 10000	< 100	100 to 1000
CCOC(=O)Cn1cc(Nc2ncc3ccn(CC4CCCCC4(F)F)c3n2)cn1 (centres unmarked) [Compound 35, ethyl 2-(4-((7-((2,2-difluorocyclohexyl)methyl)-7H-pyrrolo[2,3-d]pyrimidin-2-yl)amino)-1H-pyrazol-1-yl)acetate]	< 100	< 100	< 100	< 100
CCOC(=O)Cn1cc(Nc2ncc3ccn(C[C@H]4CC[C@@H](O)CC4)c3n2)cn1 [Compound 52, ethyl 2-(4-((7-(((1s,4s)-4-hydroxycyclohexyl)methyl)-7H-pyrrolo[2,3-d]pyrimidin-2-yl)amino)-1H-pyrazol-1-yl)acetate]	< 100	100 to 1000	< 100	< 100
CCOC(=O)Cn1cc(Nc2ncc3ccn(C[C@@H]4CCC[C@@H](OC)C4)c3n2)cn1 [Compound 131, ethyl 2-(4-((7-(((1R,3R)-3-methoxycyclohexyl)methyl)-7H-pyrrolo[2,3-d]pyrimidin-2-yl)amino)-1H-pyrazol-1-yl)acetate]	< 100	100 to 1000	< 100	< 100
CCOC(=O)Cn1cc(Nc2ncc3ccn(CC=C(C)C)c3n2)cn1 [Compound 22, ethyl 2-(4-((7-(3-methylbut-2-en-1-yl)-7H-pyrrolo[2,3-d]pyrimidin-2-yl)amino)-1H-pyrazol-1-yl)acetate]	< 100	100 to 1000	< 100	< 100
CCC(CC)Cn1ccc2cnc(Nc3cnn(CC(=O)O)c3)nc21 [Compound 9, 2-(4-((7-(2-ethylbutyl)-7H-pyrrolo[2,3-d]pyrimidin-2-yl)amino)-1H-pyrazol-1-yl)acetic acid]	< 100	< 100	< 100	< 100
CCC(CC)Cn1ccc2cnc(Nc3cnn(CC(=O)OC4CC(C#N)C4)c3)nc21 (centres unmarked) [Compound 91, 3-cyanocyclobutyl 2-(4-((7-(2-ethylbutyl)-7H-pyrrolo[2,3-d]pyrimidin-2-yl)amino)-1H-pyrazol-1-yl)acetate]	< 100	< 100	< 100	< 100
CC(C)OC(=O)Cn1cc(Nc2ncc3ccn(C[C@H]4CC[C@H](O)CC4)c3n2)cn1 [Compound 122, isopropyl 2-(4-((7-(((1r,4r)-4-hydroxycyclohexyl)methyl)-7H-pyrrolo[2,3-d]pyrimidin-2-yl)amino)-1H-pyrazol-1-yl)acetate]	< 100	< 100	< 100	< 100
CCOC(=O)Cn1cc(Nc2ncc3ccn(CC4CCCCC4C)c3n2)cn1 (centres unmarked) [Compound 42, ethyl 2-(4-((7-((2-methylcyclohexyl)methyl)-7H-pyrrolo[2,3-d]pyrimidin-2-yl)amino)-1H-pyrazol-1-yl)acetate]	< 100	< 100	< 100	< 100

Continued, values first:

IC50 (JAK3) [nM]	IC50 (JAK1) [nM]	IC50 (TYK2) [nM]	IC50 (JAK2) [nM]	Compound
< 100	< 100	< 100	< 100	CC(C)OC(=O)Cn1cc(Nc2ncc3ccn(C[C@@H](CCCl)C(C)C)c3n2)cn1 [Compound 98, isopropyl (S)-2-(4-((7-(4-chloro-2-isopropylbutyl)-7H-pyrrolo[2,3-d]pyrimidin-2-yl)amino)-1H-pyrazol-1-yl)acetate]
< 100	< 100	< 100	< 100	CCC(Cn1ccc2cnc(Nc3cnn(CC(=O)OC[C@H](C)O)c3)nc21)C(C)C (stereo partly drawn) [Compound 112, (S)-2-hydroxypropyl 2-(4-((7-(2-ethyl-3-methylbutyl)-7H-pyrrolo[2,3-d]pyrimidin-2-yl)amino)-1H-pyrazol-1-yl)acetate]
< 100	< 100	< 100	< 100	CC(C)OC(=O)Cn1cc(Nc2ncc3ccn(C[C@@H](CCF)C(C)C)c3n2)cn1 [Compound 99, isopropyl (S)-2-(4-((7-(4-fluoro-2-isopropylbutyl)-7H-pyrrolo[2,3-d]pyrimidin-2-yl)amino)-1H-pyrazol-1-yl)acetate]
< 100	< 100	< 100	< 100	CCC(Cn1ccc2cnc(Nc3cnn(CCC(=O)O)c3)nc21)C(C)C (centres unmarked) [Compound 31, 3-(4-((7-(2-ethyl-3-methylbutyl)-7H-pyrrolo[2,3-d]pyrimidin-2-yl)amino)-1H-pyrazol-1-yl)propanoic acid]
< 100	< 100	< 100	< 100	CCC(Cn1ccc2cnc(Nc3cnn(CC(=O)OC(C)C)c3)nc21)CC(F)(F)F (centres unmarked) [Compound 101, isopropyl 2-(4-((7-(2-ethyl-4,4,4-trifluorobutyl)-7H-pyrrolo[2,3-d]pyrimidin-2-yl)amino)-1H-pyrazol-1-yl)acetate]
< 100	< 100	< 100	< 100	CC[C@H](Cn1ccc2cnc(Nc3cnn(CC(=O)OC(C)C)c3)nc21)C(C)C [Compound 134, isopropyl (S)-2-(4-((7-(2-ethyl-3-methylbutyl)-7H-pyrrolo[2,3-d]pyrimidin-2-yl)amino)-1H-pyrazol-1-yl)acetate]
< 100	< 100	< 100	< 100	CCOC(=O)Cn1cc(Nc2ncc3ccn(C[C@@H](CC)C(C)C)c3n2)cn1 [Compound 135, ethyl (S)-2-(4-((7-(2-ethyl-3-methylbutyl)-7H-pyrrolo[2,3-d]pyrimidin-2-yl)amino)-1H-pyrazol-1-yl)acetate]
< 100	< 100	< 100	< 100	CCOC(=O)Cn1cc(Nc2ncc3ccn(CCC(C)C)c3n2)cn1 [Compound 21, ethyl 2-(4-((7-isopentyl-7H-pyrrolo[2,3-d]pyrimidin-2-yl)amino)-1H-pyrazol-1-yl)acetate]
< 100	< 100	< 100	< 100	CCOCCOC(=O)Cn1cc(Nc2ncc3ccn(CC(CC)C(C)C)c3n2)cn1 (centres unmarked) [Compound 86, 2-ethoxyethyl 2-(4-((7-(2-ethyl-3-methylbutyl)-7H-pyrrolo[2,3-d]pyrimidin-2-yl)amino)-1H-pyrazol-1-yl)acetate]
< 100	< 100	< 100	< 100	CCC(C)OC(=O)Cn1cc(Nc2ncc3ccn(CC(CC)C(C)C)c3n2)cn1 (centres unmarked) [Compound 107, sec-butyl 2-(4-((7-(2-ethyl-3-methylbutyl)-7H-pyrrolo[2,3-d]pyrimidin-2-yl)amino)-1H-pyrazol-1-yl)acetate]
100 to 1000	100 to 1000	100 to 1000	100 to 1000	CC(C)OC(=O)Cn1cc(Nc2ncc3ccn(C[C@@H](CCN(C)C)C(C)C)c3n2)cn1 [Compound 96, isopropyl (S)-2-(4-((7-(4-(dimethylamino)-2-isopropylbutyl)-7H-pyrrolo[2,3-d]pyrimidin-2-yl)amino)-1H-pyrazol-1-yl)acetate]
< 100	< 100	< 100	< 100	CC[C@@H](Cn1ccc2cnc(Nc3cnn(C(C)C(=O)O)c3)nc21)C(C)C (stereo partly drawn) [Compound 114, 2-(4-((7-((R)-2-ethyl-3-methylbutyl)-7H-pyrrolo[2,3-d]pyrimidin-2-yl)amino)-1H-pyrazol-1-yl)propanoic acid]
< 100	< 100	< 100	< 100	CCCCOC(=O)Cn1cc(Nc2ncc3ccn(CC(CC)C(C)C)c3n2)cn1 (centres unmarked) [Compound 84, butyl 2-(4-((7-(2-ethyl-3-methylbutyl)-7H-pyrrolo[2,3-d]pyrimidin-2-yl)amino)-1H-pyrazol-1-yl)acetate]
< 100	< 100	< 100	< 100	CC(C)C(Cn1ccc2cnc(Nc3cnn(CC(=O)OCCO)c3)nc21)C(C)C [Compound 88, 2-hydroxyethyl 2-(4-((7-(2-isopropyl-3-methylbutyl)-7H-pyrrolo[2,3-d]pyrimidin-2-yl)amino)-1H-pyrazol-1-yl)acetate]
< 100	< 100	< 100	< 100	CCOC(=O)CCn1cc(Nc2ncc3ccn(CC(CC)C(C)C)c3n2)cn1 (centres unmarked) [Compound 30, ethyl 3-(4-((7-(2-ethyl-3-methylbutyl)-7H-pyrrolo[2,3-d]pyrimidin-2-yl)amino)-1H-pyrazol-1-yl)propanoate]
